Test results reported in publication PMC4401541, “Structure- and Ligand-Based Virtual Screening Identifies New Scaffolds for Inhibitors of the Oncoprotein MDM2” (PLoS ONE, 2015).
In brackets after ≈: the same amount, converted by molar mass.

Key:
MDM2-N [1] = molecular target: T1, MDM2-N (Homo sapiens, UniProt Q00987); test: Competitive capillary electrophoresis (CE) assay, compound vs fluorescently labelled p53 peptide (p53-F); type: binding; settings: for inhibition at 300 µM: read-out: CE % inhibition at 300 μM; for activity in the assays: CE and FP screening assays
Description: Capillary electrophoresis (CE) is an analytical technique used to study the interaction between biomacromolecules. In CE, electrophoresis is carried out in the interior of a narrow capillary. The technique separates ions based on their electrophoretic mobility with the use of applied voltage. The electrophoretic mobility is dependent on the charge of the molecule, the viscosity and the molecular size. CE is performed using a high voltage to produce a high resolution profile with a short migration time to separate numerous analytes. […] The assay provides a high sensitivity through the use of a Laser Induced Fluorescence (LIF) detector to enable the detection of weak binding fragments. This enables the interaction assay to be performed with a low labelled probe concentration and allows compounds to be screened at low concentrations. A competitive CE assay was used to detect competition between compounds and fluorescently labelled p53 peptide (p53-F) in MDM2-N/p53 binding site. The injection sample contained carboxyfluorescein (internal standard (10pM)) and p53-F (500pM) in TAPS/Tris (1mM) pH 8.0, DTT (1mM). […] After injection of the sample, a voltage of 10kV was applied and separation was carried out for 6.5min.
TR is the migration time of p53-F peak.
TL is the migration time of p53-F peak in the presence of MDM2-N + compound.

MDM2-N [2] = molecular target: T1, MDM2-N; test: Fluorescence polarization (FP) competition assay with p53-F; type: binding; settings: read-out: FP % inhibition at 700 μM; compound 700 μM; MDM2-N 500 nM; p53-F 2 nM
Description: Fluorescence polarization experiments were performed with a LJL Biosystems Analyst multi-plate reader in 50mM HEPES pH 7.5, 100mM NaCl, 1mM DTT. Fluorescein labelled p53 peptide (p53-F) was synthesised by Biomatiks. […] The competition experiments were carried out by mixing MDM2-N (500nM), p53-F (2nM) and test compound in black NBS plate. […] The inhibition (%) was calculated using the equation below. %Inhibition=100(AF-AL)/(AF-AU) Where: AF is the anisotropy of fully bound p53-F.
AU is the anisotropy of unbound p53-F.
AL is the anisotropy of p53-F in the presence of MDM2-N + compound.

[3] = Solubility of the fragments in assay buffer; type: physicochemical; settings: aqueous buffer, read-out: Estimated solubility limit
Excerpt: Supplement pone.0121424.s006.docx, table 5 | column: Estimated solubility limit

MDM2 = settings: read-out: literature IC50 value for racemic Nutlin-3; cited from earlier work

SMILES: O=C(NCc1ccccc1)N(c1ccccc1)c1ccccc1 [Compound 19]
- inhibition at 300 µM (MDM2-N [1]): 42%
- inhibition at 700 µM (MDM2-N [2]): 18%

SMILES: CCn1c(=O)c2c(nc(-n3nc(C)cc3C)n2Cc2ccc(F)cc2)n(C)c1=O [Compound 25]
- activity in the assays (MDM2-N [1]): inactive

SMILES: CC1CCN(c2nc3c(c(=O)n(C)c(=O)n3C)n2CC(=O)c2ccccc2)CC1 [Compound 26]
- activity in the assays (MDM2-N [1]): inactive

SMILES: O=C1N[C@@](O)(c2ccccc2)c2ccccc21 [Compound 39]
- inhibition at 300 µM (MDM2-N [1]): 40%
- inhibition at 700 µM (MDM2-N [2]): 13%

SMILES: O=C1Cc2ccccc2N1 [Compound 40]
- inhibition at 300 µM (MDM2-N [1]): 28%
- inhibition at 700 µM (MDM2-N [2]): 8%
- solubility [3]: > 2000 µM

SMILES: Oc1cccc(Nc2ccccc2)c1 [Compound 41]
- inhibition at 300 µM (MDM2-N [1]): 66%
- inhibition at 700 µM (MDM2-N [2]): 31%
- solubility [3]: 250 to 500 µM (≈ 46.3 to 92.6 µg/mL)

SMILES: Oc1ccc(Nc2ccccc2)cc1 [Compound 42]
- inhibition at 300 µM (MDM2-N [1]): 52%
- inhibition at 700 µM (MDM2-N [2]): 60%
- solubility [3]: 250 to 500 µM (≈ 46.3 to 92.6 µg/mL)

SMILES: c1ccc(Nc2ccccc2)cc1 [Compound 43]
- inhibition at 300 µM (MDM2-N [1]): 36%
- inhibition at 700 µM (MDM2-N [2]): 33%
- solubility [3]: 250 to 500 µM (≈ 42.3 to 84.6 µg/mL)

SMILES: Nc1ccc(Nc2ccccc2)cc1 [Compound 44]
- inhibition at 300 µM (MDM2-N [1]): 30%
- inhibition at 700 µM (MDM2-N [2]): 8%
- solubility [3]: 62.5 to 125 µM (≈ 11.5 to 23 µg/mL)

SMILES: O=C(O)c1ccccc1Nc1ccccc1 [Compound 45]
- solubility [3]: > 1000 µM
